# Results taken from patent publication US4618681A, “Aryl substituted 1H-4,5-dihydro-1,2,3-triazoles as anticonvulsants” (priority 1984, dated 1986).
# Entries after “also recorded” stand apart in the source; their conditions may differ. Where two headings read alike, the source gives them in different places.
# Columns and labels:
# [1] = Phase I anticonvulsant screening (MES and scMet tests); details: for anticonvulsant potency: in words; for Anticonvulsant Activity Group Classification: Phase I screening, MES and scMet tests, mouse; for signs of neurological deficit: at 600 mg/kg (compound 7) and 300 mg/kg (compound 12)
# in vivo [2] = details: mice, i.p., 24 hour period
# Procedure: (§1) The profile of toxicity for each test drug was established by the following procedures: firstly, the minimal neurotoxic dose (TD50) was determined by the rotorod procedure at the time of peak neurotoxic effect. When a normal mouse is placed on a knurled rod one inch in diameter rotating at a speed of six rpm it can maintain its equilibrium for long periods of time. Neurological deficit is indicated by inability of the mouse to maintain its equilibrium for one minute in each of three trials on this rotating rod. Neurological deficit in rats is indicated by ataxia, loss of placing response and muscle tone. […] These observations also provide preliminary information essential for the subsequent determination of the HD50 and LD50. The HD50 represents the median dose at which 50% of animals lose their righting reflex.
# [3] = Subcutaneous Metrazol Seizure Threshold Test (sc Met) in rats; format: in vivo, rats (male albino, Sprague Dawley); details: Rattus norvegicus, po, read-out: ED50 sc Met
# Procedure: (§2) The drugs were administered either orally or intraperitoneally in a volume of 0.01 ml/g body weight in mice and 0.04 ml/10 g in rats. All tests were conducted at the previously determined time of peak drug effect.
# (§3) The profile of anticonvulsant activity for each substance was established by five tests: one electrical and four chemical. The electrical test employed was the maximal electroshock seizure pattern test. […] Except for the sc Strych Test, these tests measure the ability of anticonvulsants to afford complete protection against threshold seizures induced by the subcutaneous injection of the CD97 of the convulsant agent.
# (§4) All convulsants were administered subcutaneously into a loose fold of skin on the back of the neck in a volume of 0.01 ml/g body weight in mice; Metrazol was injected in a volume of 0.02 ml/10 g body weight in rats. The convulsant drugs were administered at the previously determined time of peak anticonvulsant action of the drug under study. […] Except for strychnine, absence of a five-second episode of clonic spasms (threshold seizure) was taken as protection. In the case of strychnine, complete abolition of the hindleg tonic extension was taken as protection.
# in vivo [4] = experiment: in vivo; parameters: species or system mice
# Procedure: as §1
# [5] = Subcutaneous Metrazol Seizure Threshold Test (sc Met) in mice; details: for Time of Test / time of peak effect (TPE), sc Met / effectiveness by the sc Met test / ED50 sc Met: i.p.; for effectiveness by the sc Met test: Phase V
# Procedure: (§5) All animals were allowed free access to both food (S/L Custom Lab Diet-7) and water, except when they were removed from their cages for the experimental procedure.
# as §2, §3, §4
# [6] = mice
# Procedure: as §5, §2, §3
# [7] = Phase V, mice, i.p.
# Procedure: as §3, §4
# [8] = Time of peak effect (TPE) over several tests in rats; details: p.o., Compound 9: toxicity, MES and sc Met tests
# Procedure: as §2
# [9] = mice; for effectiveness by the sc Pic test: Phase V, i.p.
# Procedure: as §3, §4
# [10] = format: in vivo; details: Phase V, mice, i.p.
# Procedure: as §3, §4
# [11] = mice, i.p.
# Procedure: as §5, §2, §3, §4
# [12] = Time of peak effect (TPE) over several tests in mice; details: i.p.
# Procedure: as §2
# [13] = Mus musculus, ip, read-out: ED50 sc Met
# [14] = Mus musculus, po, read-out: ED50 scMet
compound,measurement,setting,value
"Fc1ccc(N2N=NCC2c2ccncc2)cc1 (stereo not drawn) [Compound 10, 1-(p-Fluorophenyl)-5-(4-pyridyl)Δ^2-1,2,3-triazoline]",anticonvulsant potency,[1],most potent
"FC(F)(F)c1cccc(N2N=NCC2c2ccncc2)c1 (stereo not drawn) [Compound 17, 1-(m-trifluoromethylphenyl)-5-(4-pyridyl)-Δ^2-1,2,3-triazoline]",anticonvulsant potency,[1],most potent
"FC(F)(F)c1cccc(N2N=NCC2c2ccccc2Cl)c1 (stereo not drawn) [Compound 1, 1-m-trifluoromethylphenyl-5-(o-chlorophenyl)-Δ^2-1,2,3-triazoline]",Anticonvulsant Activity Group Classification,[1],II (Class II compounds show anticonvulsant activity at doses greater than 100 mg/kg or show activity at 100 mg/kg which is not reinforced by similar activity at 300 mg/kg)
"Clc1cccc(N2N=NCC2c2ccncc2)c1 (stereo not drawn) [Compound 12, 1-(m-chlorophenyl)-5-(4-pyridyl)-Δ^2-1,2,3-triazoline]",protection,[1]; 300 mg/kg,100%
same,Anticonvulsant Activity Group Classification,[1],II (Class II compounds show anticonvulsant activity at doses greater than 100 mg/kg or show activity at 100 mg/kg which is not reinforced by similar activity at 300 mg/kg)
same,signs of neurological deficit,[1],without any signs of neurological deficit
"FC(F)(F)c1ccc(N2N=NCC2c2ccncc2)cc1 (stereo not drawn) [Compound 16, 1-(p-trifluoromethylphenyl)-5-(4-pyridyl)-Δ^2-1,2,3-triazoline]",anticonvulsant potency,[1],most potent
"CCCC(CCC)C(=O)O [Valproate, valproate]",LD50 (lethality),in vivo [2],1104.62 mg/kg
same,ED50,"[3]; rats, p.o.",180 mg/kg
same,HD50 (righting reflex),"in vivo [4]; mice, i.p.",885.53 mg/kg
same,"Slope, regression line, HD50 (righting reflex)","in vivo [4]; mice, i.p.",12.46
same,"Time of Test / time of peak toxicity, righting reflex","in vivo [4]; mice, i.p.",1/4
same,ED50,[5]; [13],149 mg/kg
same,ED50,[5]; [14],388 mg/kg
same,"Time of Test / time of peak effect (TPE), sc Met",[5]; mice,1/4
same,"Time of Test / time of peak effect (TPE), MES",[6]; i.p.,1/4
"Clc1ccc(N2N=NCC2c2ccccn2)cc1 (stereo not drawn) [Compound 14, 1-(p-Chlorophenyl)-5-(2-pyridyl)-Δ^2-1,2,3-triazoline]",Anticonvulsant Activity Group Classification,[1],II (Class II compounds show anticonvulsant activity at doses greater than 100 mg/kg or show activity at 100 mg/kg which is not reinforced by similar activity at 300 mg/kg)
"c1ccc(N2N=NCC2c2ccncc2)cc1 (stereo not drawn) [Compound 7, 1-(Phenyl)-5-(4-pyridyl)-Δ^2-1,2,3-triazoline]",protection,[1]; 600 mg/kg,100%
same,Anticonvulsant Activity Group Classification,[1],II (Class II compounds show anticonvulsant activity at doses greater than 100 mg/kg or show activity at 100 mg/kg which is not reinforced by similar activity at 300 mg/kg)
same,signs of neurological deficit,[1],without any signs of neurological deficit
"CCC1(c2ccccc2)C(=O)NC(=O)NC1=O [Phenobarbital, phenobarbital]",effectiveness by the sc Bic test,[7],"effective against sc Met, sc Bic, and sc Pic in nontoxic doses"
same,ED50,[3],11.6 mg/kg
same,"Slope, regression line, HD50 (righting reflex)","in vivo [4]; mice, i.p.",8.41
same,ED50,[5]; [13],13.2 mg/kg
same,ED50,[5]; [14],12.6 mg/kg
same,"Time of Test / time of peak effect (TPE), sc Met",[5]; mice,1 h
same,TPE,[8],five
same,effectiveness by the sc Pic test,[9],"effective against sc Met, sc Bic, and sc Pic in nontoxic doses"
same,ED50 MES,[6]; i.p.,21.78 mg/kg
same,"Time of Test / time of peak effect (TPE), MES",[6]; i.p.,1 h
same,ED50 MES,[6]; p.o.,20.09 mg/kg
same,effectiveness by the sc Strych test,[10],had to be given in toxic doses in order to protect; also recorded: effective in toxic doses
"O=[N+]([O-])c1ccccc1C1CN=NN1c1cccc(Cl)c1 (stereo not drawn) [Compound 4, 1-(m-Chlorophenyl)5-(o-nitrophenyl)-Δ^2-1,2,3-triazoline]",Anticonvulsant Activity Group Classification,[1],II (Class II compounds show anticonvulsant activity at doses greater than 100 mg/kg or show activity at 100 mg/kg which is not reinforced by similar activity at 300 mg/kg)
"c1ccc(N2N=NCC2c2ccccn2)cc1 (stereo not drawn) [Compound 13, 1-(phenyl)-5-(2-pyridyl)-Δ^2-1,2,3-triazoline]",Anticonvulsant Activity Group Classification,[1],II (Class II compounds show anticonvulsant activity at doses greater than 100 mg/kg or show activity at 100 mg/kg which is not reinforced by similar activity at 300 mg/kg)
"CCc1ccc(N2N=NCC2c2ccccc2Cl)cc1 (stereo not drawn) [Compound 3, 1-(p-Ethylphenyl)-5-(o-chlorophenyl)-Δ^2-1,2,3-triazoline]",Anticonvulsant Activity Group Classification,[1],II (Class II compounds show anticonvulsant activity at doses greater than 100 mg/kg or show activity at 100 mg/kg which is not reinforced by similar activity at 300 mg/kg)
"O=[N+]([O-])c1cccc(N2N=NCC2c2ccc3ccccc3n2)c1 (stereo not drawn) [Compound 15, 1-(m-Nitrophenyl)-5-(2-quinolyl)-Δ^2-1,2,3-triazoline]",Anticonvulsant Activity Group Classification,[1],II (Class II compounds show anticonvulsant activity at doses greater than 100 mg/kg or show activity at 100 mg/kg which is not reinforced by similar activity at 300 mg/kg)
FC(F)(F)c1ccc(N2N=NCC2c2ccccc2Cl)cc1 (stereo not drawn) [Compound 2],Anticonvulsant Activity Group Classification,[1],II (Class II compounds show anticonvulsant activity at doses greater than 100 mg/kg or show activity at 100 mg/kg which is not reinforced by similar activity at 300 mg/kg)
"O=[N+]([O-])c1cccc(N2N=NCC2c2ccc(Cl)cc2Cl)c1 (stereo not drawn) [Compound 5, 1-(m-Nitrophenyl)-5-(2,4-dichlorophenyl)-Δ^2-1,2,3-triazoline]",Anticonvulsant Activity Group Classification,[1],II (Class II compounds show anticonvulsant activity at doses greater than 100 mg/kg or show activity at 100 mg/kg which is not reinforced by similar activity at 300 mg/kg)
"C1CCc2nnnn2CC1 [Metrazol, pentylenetetrazole]",ED97,"[5]; Mus musculus, sc, read-out: sc CD97 of Metrazol",85 mg/kg
"CCC1(C)CC(=O)NC1=O (stereo not drawn) [Ethosuximide, ethosuximide]",effectiveness by the sc Bic test,[7],had to be given in toxic doses to protect against sc Bic seizures
same,"Time of Test / time of peak effect (TPE), Rotorod","mouse, in vivo, ip",1/2
same,TD50 (rotorod),"mouse, in vivo, po",879.21 mg/kg
same,ED50,"[3]; rats, p.o.",54 mg/kg
same,"Slope, regression line, HD50 (righting reflex)","in vivo [4]; mouse, in vivo, ip",16.43
same,"Time of Test / time of peak toxicity, righting reflex","in vivo [4]; mouse, in vivo, ip",1/2
same,"Time of Test / time of peak effect (TPE), sc Met",[11],1/2
same,effectiveness by the sc Met test,[5]; mice,"effective by the sc Met, sc Bic, and sc Pic tests"
same,ED50 sc Met,[5]; mice,130.35 mg/kg
same,ED50 scMet,"[5]; mice, p.o.",192.71 mg/kg
same,effectiveness by the sc Pic test,[9],"effective by the sc Met, sc Bic, and sc Pic tests"
same,"Time of Test / time of peak effect (TPE), MES",[6]; i.p.,1/2
same,"animals protected, sc Strych test",[10],≤ 62%
"CCOC(=O)c1ccc(N2N=NCC2c2ccncc2)cc1 (stereo not drawn) [Compound 8, 1-(p-Ethoxycarbonyl)-5-(4-pyridyl)-Δ^2-1,2,3-triazoline]",Anticonvulsant Activity Group Classification,[1],II (Class II compounds show anticonvulsant activity at doses greater than 100 mg/kg or show activity at 100 mg/kg which is not reinforced by similar activity at 300 mg/kg)
"Fc1ccc(N2N=NCC2c2cccnc2)cc1Cl (stereo not drawn) [Compound 18, 1-(m-chloro-p-fluorophenyl)-5-(3-pyridyl)-Δ ^2-1,2,3-triazoline]",Anticonvulsant Activity Group Classification,[1],II (Class II compounds show anticonvulsant activity at doses greater than 100 mg/kg or show activity at 100 mg/kg which is not reinforced by similar activity at 300 mg/kg)
"Cc1ccc(N2N=NCC2c2ccncc2)cc1 (stereo not drawn) [Compound 11, 1-(p-Methylphenyl)-5-(4-pyridyl)-Δ^2-1,2,3-triazoline]",Anticonvulsant Activity Group Classification,[1],II (Class II compounds show anticonvulsant activity at doses greater than 100 mg/kg or show activity at 100 mg/kg which is not reinforced by similar activity at 300 mg/kg)
picrotoxin,sc CD97 of picrotoxin,[9]; subcutaneous,3.15 mg/kg
"Clc1cccc(Cl)c1C1CN=NN1c1ccc(Br)cc1 (stereo not drawn) [Compound 6, 1-(p-Bromophenyl)-5-(2,6-dichlorophenyl)-Δ^2-1,2,3-triazoline]",Anticonvulsant Activity Group Classification,[1],II (Class II compounds show anticonvulsant activity at doses greater than 100 mg/kg or show activity at 100 mg/kg which is not reinforced by similar activity at 300 mg/kg)
"O=C1NC(=O)C(c2ccccc2)(c2ccccc2)N1 [Phenytoin, phenytoin]",TPE by all tests,[12],2 h
same,effectiveness by the sc Bic test,[7],"ineffective against Metrazol, bicuculline, and picrotoxin"
same,"Time of Test / time of peak effect (TPE), Rotorod","mice, i.p.",2 h
same,"Slope, regression line, HD50 (righting reflex)","in vivo [4]; mice, i.p.",14.03
same,"Time of Test / time of peak toxicity, righting reflex","in vivo [4]; mouse, in vivo, ip",12 h
same,effectiveness by the sc Met test,[5]; mice,"ineffective against Metrazol, bicuculline, and picrotoxin"
same,ED50 sc Met,"[5]; mice, listed as phenytion",did not protect against subcutaneous Metrazol seizures
same,effectiveness by the sc Pic test,[9],"ineffective against Metrazol, bicuculline, and picrotoxin"
same,"animals protected, sc Strych test",[10],50%
